Reference: paper PMC8359193, “Summary of reference chemicals evaluated by the fish short‐term reproduction assay, OECD TG229, using Japanese Medaka, Oryzias latipes” (Journal of Applied Toxicology, 2021)

Columns and labels:
[1] = target: medaka ARβ (mARβ) (Oryzias latipes, UniProt D1MV73); assay: Medaka ARβ reporter gene assay (RGA), antagonist assay with 50 nM 11KT, HepG2 cells; assay type: cell-based, Japanese medaka (Oryzias latipes); settings: mARβ RGA antagonist assay, 50 nM 11KT-induced activity; ND = no significant response even at the highest assay concentration (in parentheses)
medaka ARβ (mARβ), sequence (D1MV73 entry or part of it): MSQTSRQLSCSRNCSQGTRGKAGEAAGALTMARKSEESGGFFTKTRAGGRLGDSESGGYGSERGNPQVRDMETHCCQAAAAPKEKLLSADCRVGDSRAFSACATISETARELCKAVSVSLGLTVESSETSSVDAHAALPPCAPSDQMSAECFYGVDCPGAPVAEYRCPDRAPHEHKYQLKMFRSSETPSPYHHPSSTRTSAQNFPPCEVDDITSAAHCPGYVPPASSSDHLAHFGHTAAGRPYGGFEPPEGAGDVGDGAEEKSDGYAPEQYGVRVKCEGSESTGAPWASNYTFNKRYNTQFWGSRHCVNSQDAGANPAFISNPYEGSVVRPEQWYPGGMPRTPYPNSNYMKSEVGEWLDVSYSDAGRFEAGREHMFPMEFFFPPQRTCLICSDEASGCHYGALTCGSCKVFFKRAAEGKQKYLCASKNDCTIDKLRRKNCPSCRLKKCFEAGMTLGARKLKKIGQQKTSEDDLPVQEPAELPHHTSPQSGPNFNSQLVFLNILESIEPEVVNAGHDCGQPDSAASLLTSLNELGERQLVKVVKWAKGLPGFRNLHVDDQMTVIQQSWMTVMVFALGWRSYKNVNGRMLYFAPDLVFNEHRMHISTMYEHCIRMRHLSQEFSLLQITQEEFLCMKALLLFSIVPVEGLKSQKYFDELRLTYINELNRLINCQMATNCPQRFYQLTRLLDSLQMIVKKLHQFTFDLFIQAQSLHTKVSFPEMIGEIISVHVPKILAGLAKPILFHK
Description: To support interpretation of the biological effects observed in the FSTRA studies, in vitro RGAs using medaka Esr1 (mEsr1) and medaka ARβ (mARβ) were performed for the 16 test chemicals. In the present study, Esr1 and ARβ, which are ancestral subtypes among Esrs and ARs in Japanese medaka, were selected based on the phylogenetical analyses of Esr and AR with each receptor RGAs (Ogino et al., [2016], [2018]; Tohyama et al., [2015]).
The mARβ RGA in which the agonist and the antagonist assays were performed as same as the mEsr1 RGA was carried out according to the methods previously reported by Lange et al. ([2015]). For the assays, human liver cancer cell line, HepG2, was used as the host cells, and mARβ/pcDNA3.1, MMTV‐Luc, and pRL‐TK‐Rlu were used as mARβ expression vector, reporter vector, and internal control vector, respectively. Other materials and methods, for example, operating procedure, reagents, and incubation conditions, were almost the same as the mEsr1 RGA previously described beside that 11KT (Sigma‐Aldrich, purity 99.0%), a main AR ligand in fish, was competitively spiked at 50 nM into the test medium with test chemicals in antagonist assay. In the agonist and the antagonist assays, 11KT and 2‐hydroxyflutamide (2HFLT; Sigma‐Aldrich, purity 98.5%) were used as positive controls, respectively.
Effect concentrations, that is, EC50 (a half maximal effective concentration) in the agonist assay and IC50 (a half maximal inhibitory concentration) in the antagonist assay, were estimated by nonlinear curve fitting (e.g., three parameters logistic regression curve) using GraphPad Prism (GraphPad Software Inc., La Jolla, CA, USA).

[2] = P4 concentration in test solutions with and without UV irradiation (biodegradation check); assay type: physicochemical
[3] = test system: Japanese medaka; settings: cited from earlier work

With `C#C[C@]1(O)CC[C@H]2[C@@H]3CCc4cc(O)ccc4[C@H]3CC[C@@]21C` [EE2, 17α‐Ethynylestradiol] as the compound, how does the IC50 [1] read?
The IC50 was 140 nM.

What does the source list for `CC(=O)[C@H]1CC[C@H]2[C@@H]3CCC4=CC(=O)CC[C@]4(C)[C@H]3CC[C@]12C` [P4, Progesterone]?
P4 concentration, % of the nominal ([2]; test solution after 24-h UV treatment): more than 80 % of the nominal; P4 concentration, % of the nominal ([2]; test solution without UV treatment): less than 20 % of the nominal

For `CCCCCCCCCCCCOS(=O)(=O)[O-].[Na+]` [SDS, Sodium dodecyl sulfate], which IC50 [1] is on record?
Its IC50 is over 100000 nM.

What does the source list for `C[C@]12C=CC3=C4CCC(=O)C=C4CC[C@H]3[C@@H]1CC[C@@H]2O` [TRB, 17β‐Trenbolone]?
concentration causing reduction of reproduction ([3]; in vivo): 0.013 ng/mL; concentration causing induction of SSC in females ([3]; long-term testing, ref Flynn et al., 2017): 32 ng/L
